# From patent US5834301A, “Method of removing color from kraft wood pulps” (priority 1995, dated 1998)
# Key:
# Type in all cases: biochemical
# Details in all cases: 1 mM reagent
# [1] = tested on: Streptomyces sp. TUB B-12-2 endoxylanase xyl 4
# Protocol: (§1) Xylanase activity was routinely determined by measuring the release of reducing sugars from either 1% (w/v) alkali-soluble or water soluble oat-spelt xylan, using the Somogyi's modification Nelson method (NS) as previously described. Crude or purified enzyme preparations were diluted appropriately to obtain maximal activity consistent with a linear response. For comparative purposes, xylanase activities were measured against 1% (w/v) water soluble and water insoluble xylan from either oat-spelts or birch (Sigma). The dinitrosalicylic acid (DNS) method of Miller, Anal. Chem., 31:426-429 (1959) was used to assay xylanase activity during initial screening. Carboxymethylcellulase activity (CMCase) was assayed by replacing 1% xylan with 1% of low viscosity carboxymethyl cellulose (Sigma). Acetylated glucuronoxylan was recovered from birch wood flakes by hot water extraction. β-Xylosidase was assayed as described by Bachmann and McCarthy, J. Gen. Microbiol., 135:293-299 (1989) using 5 mM p-nitrophenyl-β-D-xylopyranoside in 50 mM potassium phosphate buffer at pH 7.0. The values of the Michaelis constant (Km) and the maximum velocity (Vmax) were determined from a Lineweaver-Burke plot of assayed activities over a range of substrate concentrations. Suitably diluted xylanases were incubated with alkali-soluble birch wood or oat spelt xylan at concentrations ranging from 0.5 to 10 mg/ml under the assay conditions given.
# (§2) f. Effectors. We investigated the effects of 1 mM metal ions and other agents on the activities of purified endoxylanases (Table 14).
# [2] = tested on: Streptomyces sp. TUB B-12-2 endoxylanase xyl 2
# Protocol: as §1, §2
# [3] = tested on: Streptomyces sp. TUB B-12-2 endoxylanase xyl 1a
# Protocol: as §1, §2
# [4] = tested on: Streptomyces sp. TUB B-12-2 endoxylanase xyl 3
# Protocol: as §1, §2
# [5] = tested on: Streptomyces sp. TUB B-12-2 endoxylanase xyl 1b
# Protocol: as §1, §2
Compound,Effect on activity of xyl 4 (in words) [1],Relative activity (%) xyl 4 [1] [%],Effect on activity of xyl 2 (in words) [2],Relative activity (%) xyl 2 [2] [%],Effect on activity of xyl 1a (in words) [3],Relative activity (%) xyl 1a [3] [%],Effect on activity of xyl 3 (in words) [4],Relative activity (%) xyl 3 [4] [%],Effect on activity of xyl 1b (in words) [5],Relative activity (%) xyl 1b [5] [%]
N-Bromosuccinamide,totally inactivated,0,totally inactivated,0,totally inactivated,0,totally inactivated,0,totally inactivated,0
"O=S(=O)(F)Cc1ccccc1 [PMSF, Phenylmethylsulfonylfluoride]",did not influence the activity,100,did not influence the activity,100,did not influence the activity,95,did not influence the activity,100,did not influence the activity,87
"O=C(O)c1cc[c]([Hg][OH])cc1 [PHMB, p-Hydroxymercury-benzoate]",,95,,90,,100,,96,completely inactivated,0
